Measurements: patent publication US7220784B2, “Substituted stilbenes and their reactions” (priority 2000, dated 2007)
Read-outs that look alike come from different tables or passages of the source.

Legend:
[1] = tested on: K562 human myelogeneous leukaemia cell line; assay: Cytotoxicity/growth inhibition assay (MTT), K562; format: cell-based
Procedure, shortened: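 Growth inhibition of P388 murine and K562 human leukaemia cells measured by MTT assay.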

[2] = tested on: T1, tubulin; assay: Inhibition of tubulin assembly; format: biochemical; details: concentration required to reduce assembly of tubulin by 50%
T1 construct: other: concentration required to reduce assembly of tubulin by 50%
Procedure: (§1) The following assays (1–5) were carried out as described in our paper (Woods, et al, British Journal of Cancer, 71, 705–711 (1995)). In addition to the cell lines described in this paper, other established human cell lines (K562, HUVEC, H460, BE, H529, and HT29) were used in the cytotoxicity/growth inhibition assay. • (1) Inhibition of tubulin assembly. The figure quoted is the concentration required to reduce assembly of tubulin by 50%. Tubulin assembly is monitored by light scatter/absorption at 350 nm.

[3] = tested on: tubulin; assay: MA IC50 (Tables 12-26, abbreviation not defined); format: biochemical
[4] = tested on: HUVEC; assay: Growth inhibition studies using HUVEC; format: cell-based, human; details: Homo sapiens, HUVEC
Procedure: as §1
(§2) (2) Competition for the colchicine binding site on tubulin. The figure quoted represents the % of ^3H-colchicine bound following co-incubation of test compound and ^3H-cochicine with isolated tubulin. Where ester pro-drugs were used the experiments were carried out in the presence and absence of porcine liver esterase. • (3) Cytotoxicity/growth inhibition assay. This was carried out by the MTT assay. • (4) Permeability (shape-change) assay in endothelial cells. This was carried out using a method based on that of Watts et al. (Anticancer Res., 17, 71–75, (1997)). This involved the diffusion of a fluorescently labelled dextran through a barrier of endothelial cells (HUVEC) grown to confluence on a porous membrane. The effect of agents to alter the shape of these cells results in an increase in the permeability of the cells to the dye. The figure represents the increase in permeability over control cultures when drug is added (30 minutes, 1 mM.). • (5) Experiments to study the anti-vascular effects of these agents were carried out as described previously by our group. (Zhao et al, European Journal of Nuclear Medicine, 26, 231–238 (1999)). The anti-vascular effects of the agents were monitored by either positron emission tomography (PET) or by histologogical examination following treatment of mice bearing T50:80 murine breast tumours, or H460 human lung tumours. • (6) Anti-tumour efficacy of agents was determined in xenografts of H460 human lung cancer. Animals (n=5) were trated either with 5 daily injections and tumour size measured with time following treatment. • (7) The pharmacokinetic profile of agents was determined in mice following injection with drug. Blood was taken at various times following treatment and analysed by HPLC with UV detection. The HPLC conditions were isocratic using a 5 micron C18 BDS column (150×4.6) ad eluting with 75% MeOH in water with a detection wavelength of 290 nm. […] (AND(P)H:quinone oxidoreductace, EC 1.6.99.2). DT-diaphorase is an enzyme over-expressed in a number of human tumours. […] This two-electron reducing enzyme can be used to selectively activate prodrugs within cancers which over-express the enzyme.

[5] = tested on: tubulin; assay: CD IC50 (Tables 12-26, abbreviation not defined); format: binding
[6] = tested on: A2780/ADR; assay: Cytotoxicity/growth inhibition assay (MTT), A2780/ADR; format: cell-based
Procedure: as §1, §2

[7] = tested on: colchicine binding site on tubulin; assay: Competition for the colchicine binding site on tubulin; details: % of 3H-colchicine bound
Procedure: as §2, with “This was carried out using a method based on that of Watts et al. (Anticancer Res., 17, 71–75, (1997)).” left out, “(Zhao et al, European Journal of Nuclear Medicine, 26, 231–238 (1999)).” left out, “detection.” for “detection. The HPLC conditions were isocratic using a 5 micron C18 BDS column (150×4.6) ad eluting with 75% MeOH in water with a detection wavelength of 290 nm.”

[8] = tested on: A2780; assay: Cytotoxicity/growth inhibition assay (MTT), A2780; format: cell-based
Procedure: as §1, §2

[9] = tested on: K562; assay: K562 cell cycle analysis; format: cell-based, human; details: K562; for % of cells in G0–G1 / % of cells in G2-M / % of cells in S phase: of cells with DNA content = 2 n or >2 n
[10] = tested on: P388 murine leukaemia cell line; assay: Cytotoxicity/growth inhibition assay (MTT), P388; format: cell-based
Procedure: as §2, with “This was carried out using a method based on that of Watts et al. (Anticancer Res., 17, 71–75, (1997)).” left out, “(Zhao et al, European Journal of Nuclear Medicine, 26, 231–238 (1999)).” left out, “detection.” for “detection. The HPLC conditions were isocratic using a 5 micron C18 BDS column (150×4.6) ad eluting with 75% MeOH in water with a detection wavelength of 290 nm.”

[11] = Homo sapiens, K562, MTT, read-out: K562 IC50
[12] = Homo sapiens, A2780, read-out: IC50 (nM) A2780
[13] = Homo sapiens, K562, Table 22, read-out: MTT (K582) IC50

| Compound | IC50 [1, 11] [nM] | IC50 [2] [µM] | IC50 [3] [nM] | IC50 [4] [nM] | IC50 [5] [nM] | % of cells with DNA content <2 n [9] [%] | % of cells in G0–G1 [9] [%] | % of cells in G2-M [9] [%] | % of cells in S phase [9] [%] | also measured |
| --- | --- | --- | --- | --- | --- | --- | --- | --- | --- | --- |
| CCOc1cc(/C=C\c2ccc(OC)c(O)c2)cc(OCC)c1OCC [Compound 31a, Z-1-(3′,4′,5′-triethoxyphenyl)-2-(3″-hydroxy-4″-methoxyphenyl)ethene] | 18 | 7.5 |  |  |  |  |  |  |  |  |
| COc1ccc(/C=C\c2cc(OC)c(OC)c(OC)c2)cc1 [Compound 32] | 4 |  | 200 | 6 | 5500 |  |  |  |  |  |
| CCOc1cc(/C=C\c2ccc(OC)c(F)c2)cc(OCC)c1OCC [Compound 32a, Z-1-(3′,4′,5′-triethoxyphenyl)-2-(3″-fluoro-4″-methoxyphenyl)ethene] | 44 | 18 |  |  |  |  |  |  |  |  |
| COc1ccc(C=Cc2cc(OC)c(OC)c(OC)c2)cc1OC(=O)C(Cc1ccccc1)NC(=O)OC(C)(C)C (stereo not drawn) [Compound 33, Boc-Phenylalanine Combretastatin A-4] |  | 3.6 |  |  |  |  |  |  |  | IC50 ([6]; A2780 ADR): 4 nM; Colchicine displacement protein:drug 1:10 (with esterase) ([7]; with porcine liver esterase): 2%; Colchicine displacement protein:drug 1:10 (without esterase) ([7]; without esterase): 92%; IC50 [8, 12]: 2.8 nM |
| COc1ccc(C=Cc2cc(OC)c(OC)c(OC)c2)cc1OC(=O)C(Cc1c[nH]c2ccccc12)NC(=O)OC(C)(C)C (stereo not drawn) [Compound 36] |  | 4 |  |  |  |  |  |  |  | IC50 ([6]; A2780 ADR): 2 nM; IC50 [8, 12]: 1.7 nM |
| COc1ccc(/C=C\c2cc(OC)c(OC)c(OC)c2)cc1OC(=O)C(Cc1ccc(O)cc1)NC(=O)OC(C)(C)C (stereo not drawn) [Compound 44] |  |  |  |  |  |  |  |  |  | IC50 [6]: 6.4 nM; IC50 ([8]; read-out: IC50 (nM) A2780): 4.5 nM |
| CC/C(=C/c1cc(OC)c(OC)c(OC)c1)c1ccc(OC)c(O)c1 [Compound 45] | 120 | 1.8 |  |  |  |  |  |  |  |  |
| COc1ccc(/C=C\c2cc(OC)c(OC)c(OC)c2)cc1F [Compound 90] | 10 |  | 85 | 4 | 2800 | 16 | 5 | 79 | 16 |  |
| COc1ccc(/C=C\c2cc(OC)c(OC)c(OC)c2)cc1Br [Compound 93] | 1 |  | 400 | 67 | 10000 |  |  |  |  |  |
| COc1cc(C=Cc2ccc(N(C)C)cc2)cc(OC)c1OC [Compound 97-65] |  | 100 |  | 350 |  |  |  |  |  | IC50 ([10]; Mus musculus, P388, MTT): 180 nM; IC50 ([8]; Homo sapiens, A2780, read-out: A2780 IC50): 95 nM |
| COc1ccc(/C=C\c2cc(OC)c(OC)c(OC)c2)cc1OC [Compound 99-03H] |  | 60 |  |  |  |  |  |  |  | IC50 ([1]; MTT, read-out: K562 IC50): 60 nM; IC50 ([10]; MTT): 190 nM; IC50 ([8]; read-out: A2780 IC50): 120 nM |
| COc1ccc(/C=C\c2cc(C)c(C)c(C)c2)cc1 [Compound 117] | 310 |  | 650 | > 1000 | > 25000 | 15 | 3 | 87 | 10 |  |
| COc1ccc(/C=C\c2cc(C)c(C)c(C)c2)cc1F [Compound 120] | 140 |  | 700 | 460 | 10000 | 23 | 6 | 77 | 17 |  |
| COc1ccc(/C=C\c2cc(C)c(C)c(C)c2)cc1O [Compound 133] |  |  | 120 | 50 | 10000 | 6 | 3 | 91 | 6 | IC50 ([1]; MTT, read-out: K562 IC50): 20 nM |
| COc1ccc(C=C(C)c2cc(OC)c(OC)c(OC)c2)cc1O [Compound 210] | 40 |  | 130 | 90 | 6000 | 23 | 5 | 73 | 22 | IC50 [1, 13]: 40 nM |
| COc1ccc(C=C(C)c2cc(OC)c(OC)c(OC)c2)cc1 [Compound 213] |  |  | 1300 | 350 | > 25000 | 23 | 5 | 73 | 21 | IC50 [1, 13]: 100 nM |
| CCC(=Cc1ccc(OC)c(O)c1)c1cc(OC)c(OC)c(OC)c1 [Compound 219] |  |  | 130 | 220 | > 25000 | 24 | 7 | 74 | 19 | IC50 [1, 13]: 120 nM |
| CCOc1cc(C=Cc2ccc(OC)c(F)c2)cc(OCC)c1OCC [Compound 251] | 44 |  | 1250 | 190 | > 25000 | 24 | 7 | 75 | 18 |  |
| CCOc1cc(C=Cc2ccc(OC)c(O)c2)cc(OCC)c1OCC [Compound 253] | 18 |  | 500 | 50 | 15500 | 4 | 3 | 92 | 6 |  |
